The record followed here is patent publication US11464770B2, “Anticancer pharmaceutical composition” (NATIONAL CANCER CENTER, priority 2016, dated 2022).

Read-outs that look alike come from different tables or passages of the source. Some results are limits rather than exact numbers.

The assay concerns breast cancer cell lines (e.g. MDA-MB-231, SK-BR-3, MDA-MB-468, HCC1954). Description: Cell based assay, cell viability (CellTiter-Glo), breast cancer cell lines. The following applies: 72 hours, CellTiter-Glo. The gist of the method:
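Cells were trypsinized, seeded, and left 24 h before compound was added at 0 to 2 μM final. After a further 72 h of culture, viability was read by ATP-based luminescence.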
In general terms: ATP-based viability assays read luminescence as a measure of living cells.

The mark [1] stands for this setting: Breast cancer cell line MDA-MB-231-L/DOX, read-out: IC50, MDA-MB-231-L/DOX.
Setting [2] is: Homo sapiens, Breast cancer cell line BT-20, read-out: IC50, BT-20.
The mark [3] stands for this setting: Homo sapiens, Breast cancer cell line HCC1395, read-out: IC50, HCC1395.
The mark [4] stands for this setting: Homo sapiens, Breast cancer cell line HCC1954, read-out: IC50, HCC1954.
The mark [5] stands for this setting: Homo sapiens, Breast cancer cell line JIMT-1, read-out: IC50, JIMT-1.
Setting [6] is: Homo sapiens, Breast cancer cell line MCF7, read-out: IC50, MCF7.
[7] abbreviates: Homo sapiens, Breast cancer cell line MDA-MB-231, read-out: IC50, MDA-MB-231.
Setting [8] is: Homo sapiens, Breast cancer cell line MDA-MB-468, read-out: IC50, MDA-MB-468.
Setting [9] is: Homo sapiens, Breast cancer cell line SK-BR-3, read-out: IC50, SK-BR-3.

For the compound `CC(=O)c1c([S+]([O-])Cc2ccc(F)cc2F)[nH]c2c(Br)ccc(Cl)c2c1=O` (stereo not drawn) [Compound 29, 3-acetyl-8-bromo-5-chloro-2-((2,4-difluorobenzyl)sulfinyl)quinolin-4(1H)-one], the IC50 under setting [1] was above 2000 nM; the IC50 under setting [2] was above 2000 nM; the IC50 under setting [3] was above 10000 nM; the IC50 under setting [4] was above 2000 nM; the IC50 under setting [5] is above 10000 nM; the IC50 under setting [6] was above 2000 nM. For the same compound, the IC50 reads like this: under setting [7], above 2000 nM; under setting [8], above 2000 nM; under setting [9], 850 nM.
As to `CC(=O)c1c([S+]([O-])Cc2ccc(F)c(Cl)c2)[nH]c2c(Br)ccc(Cl)c2c1=O` (stereo not drawn) [Compound 31, 3-acetyl-8-bromo-5-chloro-2-((3-chloro-4-fluorobenzyl)sulfinyl)quinolin-4(1H)-one], the IC50 reads like this: under setting [1], above 2000 nM; under setting [2], above 2000 nM; under setting [3], above 10000 nM; under setting [4], above 2000 nM; under setting [5], above 10000 nM; under setting [6], above 2000 nM. Further, the IC50 runs as follows: under setting [7], 1330 nM; under setting [8], above 2000 nM; under setting [9], 950 nM.
Regarding `CC(=O)c1c([S+]([O-])Cc2ccc([N+](=O)[O-])cc2)[nH]c2c(Br)ccc(Cl)c2c1=O` (stereo not drawn) [Compound 33, 3-acetyl-8-bromo-5-chloro-2-((4-nitrobenzyl)sulfinyl)quinolin-4(1H)-one], the IC50 by setting is: under setting [1], above 2000 nM; under setting [2], above 2000 nM; under setting [3], above 10000 nM; under setting [4], above 2000 nM; under setting [5], above 10000 nM; under setting [6], above 2000 nM. Further, the IC50 is, setting by setting: under setting [7], above 2000 nM; under setting [8], above 2000 nM; under setting [9], 1000 nM.
Take `CC(=O)c1c(S(=O)(=O)Cc2ccccc2)[nH]c2c(Br)ccc(Cl)c2c1=O` [Compound 34, 3-acetyl-2-(benzylsulfonyl)-8-bromo-5-chloroquinolin-4(1H)-one]: the IC50 reads like this: under setting [1], above 2000 nM; under setting [2], above 2000 nM; under setting [3], above 10000 nM; under setting [4], above 2000 nM; under setting [5], above 10000 nM; under setting [6], above 2000 nM. Moreover, the IC50 under setting [7] was above 2000 nM, the IC50 under setting [8] is above 2000 nM and the IC50 under setting [9] stood at 1270 nM.
On to `CC(=O)c1c([S+]([O-])Cc2cc(Cl)ccc2Cl)[nH]c2c(Br)ccc(Cl)c2c1=O` (stereo not drawn) [Compound 44, 3-acetyl-8-bromo-5-chloro-2-((2,5-dichlorobenzyl)sulfinyl)quinolin-4(1H)-one], for which the IC50 is above 2000 nM under setting [1]; above 2000 nM under setting [2]; above 10000 nM under setting [3]; above 2000 nM under setting [4]; above 10000 nM under setting [5]; above 2000 nM under setting [6]. Besides, the IC50 under setting [7] was above 2000 nM, the IC50 under setting [8] is above 2000 nM and the IC50 under setting [9] came to 1060 nM.
Take `CC(=O)c1c([S+]([O-])Cc2cc(F)cc(F)c2)[nH]c2c(Br)ccc(Cl)c2c1=O` (stereo not drawn) [Compound 46, 3-acetyl-8-bromo-5-chloro-2-((3,5-difluorobenzyl)sulfinyl)quinolin-4(1H)-one]: the IC50 reads like this: under setting [1], above 2000 nM; under setting [2], above 2000 nM; under setting [3], above 10000 nM; under setting [4], above 2000 nM; under setting [5], above 10000 nM; under setting [6], above 2000 nM. For the same compound, the IC50 is, setting by setting: under setting [7], above 2000 nM; under setting [8], above 2000 nM; under setting [9], 1160 nM.
Turning to `CC(=O)c1c([S+]([O-])Cc2cccc(F)c2)[nH]c2c(Br)ccc(Cl)c2c1=O` (stereo not drawn) [Compound 50, 3-acetyl-8-bromo-5-chloro-2-((3-fluorobenzyl)sulfinyl)quinolin-4(1H)-one], the IC50 under setting [1] is above 2000 nM; the IC50 under setting [2] is above 2000 nM; the IC50 under setting [3] was above 10000 nM; the IC50 under setting [4] is above 2000 nM; the IC50 under setting [5] was above 10000 nM; the IC50 under setting [6] was above 2000 nM. In addition, the IC50 by setting is: under setting [7], above 2000 nM; under setting [8], above 2000 nM; under setting [9], 1010 nM.
Consider `CC(=O)c1c([S+]([O-])Cc2cc(C)on2)[nH]c2c(Br)ccc(Cl)c2c1=O` (stereo not drawn) [Compound 51, 3-acetyl-8-bromo-5-chloro-2-(((5-methylisoxazol-3-yl)methyl)sulfinyl)quinolin-4(1H)-one], for which the IC50 is, setting by setting: under setting [1], above 2000 nM; under setting [2], above 2000 nM; under setting [3], above 10000 nM; under setting [4], above 2000 nM; under setting [5], above 10000 nM; under setting [6], above 2000 nM. The IC50 under setting [7] is 1550 nM, the IC50 under setting [8] was above 2000 nM and the IC50 under setting [9] turned out to be 540 nM.
On to `COc1cccc(C[S+]([O-])c2[nH]c3c(Br)ccc(Cl)c3c(=O)c2C(C)=O)c1` (stereo not drawn) [Compound 55, 3-acetyl-8-bromo-5-chloro-2-((3-methoxybenzyl)sulfinyl)quinolin-4(1H)-one], for which the IC50 reads like this: under setting [1], above 2000 nM; under setting [2], above 2000 nM; under setting [3], above 10000 nM; under setting [4], above 2000 nM; under setting [5], above 10000 nM; under setting [6], above 2000 nM. In addition, the IC50 is, setting by setting: under setting [7], above 2000 nM; under setting [8], above 2000 nM; under setting [9], 1100 nM.
As for `CC(=O)c1c([S+]([O-])Cc2ccc(SC(F)(F)F)cc2)[nH]c2c(Br)ccc(Cl)c2c1=O` (stereo not drawn) [Compound 56, 3-acetyl-8-bromo-5-chloro-2-((4-((trifluoromethyl)thio)benzyl)sulfinyl)quinolin-4(1H)-one], the IC50 runs as follows: under setting [1], above 2000 nM; under setting [2], above 2000 nM; under setting [3], above 10000 nM; under setting [4], 1470 nM; under setting [5], above 10000 nM; under setting [6], above 2000 nM. Besides, the IC50 worked out at 1450 nM under setting [7], 1640 nM under setting [8] and 1380 nM under setting [9].
Regarding `CC(=O)c1c([S+]([O-])Cc2ccc([N+](=O)[O-])cc2)[nH]c2c(Cl)ccc(Cl)c2c1=O` (stereo not drawn) [Compound 57, 3-acetyl-5,8-dichloro-2-((4-nitrobenzyl)sulfinyl)quinolin-4(1H)-one], the IC50 was above 2000 nM under setting [1]; above 2000 nM under setting [2]; above 10000 nM under setting [3]; above 2000 nM under setting [4]; above 10000 nM under setting [5]; above 2000 nM under setting [6]. Further, the IC50 under setting [7] is above 2000 nM, the IC50 under setting [8] is above 2000 nM and the IC50 under setting [9] is 1340 nM.
Regarding `COc1cc(C[S+]([O-])c2[nH]c3c(Br)ccc(Cl)c3c(=O)c2C(C)=O)cc(OC)c1` (stereo not drawn) [Compound 59, 3-acetyl-8-bromo-5-chloro-2-((3,5-dimethoxybenzyl)sulfinyl)quinolin-4(1H)-one], the IC50 is, setting by setting: under setting [1], above 2000 nM; under setting [2], above 2000 nM; under setting [3], above 10000 nM; under setting [4], above 2000 nM; under setting [5], above 10000 nM; under setting [6], above 2000 nM. Further, the IC50 under setting [7] was above 2000 nM, the IC50 under setting [8] is above 2000 nM and the IC50 under setting [9] is 1080 nM.
`CC(=O)c1c([S+]([O-])Cc2ccc(C(C)(C)C)cc2)[nH]c2c(Br)ccc(Cl)c2c1=O` (stereo not drawn) [Compound 60, 3-acetyl-8-bromo-2-((4-(tert-butyl)benzyl)sulfinyl)-5-chloroquinolin-4(1H)-one]: the IC50 was above 2000 nM under setting [1]; above 2000 nM under setting [2]; above 10000 nM under setting [3]; above 2000 nM under setting [4]; above 10000 nM under setting [5]; above 2000 nM under setting [6]. In addition, the IC50 reads like this: under setting [7], above 2000 nM; under setting [8], above 2000 nM; under setting [9], 1880 nM.
As for `CC(=O)c1c([S+]([O-])Cc2ccc([S+]([O-])C(F)(F)F)cc2)[nH]c2c(Br)ccc(Cl)c2c1=O` (stereo not drawn) [Compound 64, 3-acetyl-8-bromo-5-chloro-2-((4-((trifluoromethyl)sulfinyl)benzyl)sulfinyl)quinolin-4(1H)-one], the IC50 runs as follows: under setting [1], above 2000 nM; under setting [2], above 2000 nM; under setting [3], above 10000 nM; under setting [4], above 2000 nM; under setting [5], above 10000 nM; under setting [6], above 2000 nM. Further, the IC50 by setting is: under setting [7], above 2000 nM; under setting [8], above 2000 nM; under setting [9], 1030 nM.
Take `CC(=O)c1c([S+]([O-])Cc2ccc(C(F)(F)F)cc2)[nH]c2c(Br)ccc(Cl)c2c1=O` (stereo not drawn) [Compound 70, 3-acetyl-8-bromo-5-chloro-2-((4-(trifluoromethyl)benzyl)sulfinyl)quinolin-4(1H)-one]: the IC50 was above 2000 nM under setting [1]; above 2000 nM under setting [2]; above 10000 nM under setting [3]; above 2000 nM under setting [4]; above 10000 nM under setting [5]; above 2000 nM under setting [6]. Also, the IC50 is, setting by setting: under setting [7], above 2000 nM; under setting [8], above 2000 nM; under setting [9], 1210 nM.
With `CC(=O)c1c([S+]([O-])Cc2ccc(OC(F)(F)F)cc2)[nH]c2c(Br)ccc(Cl)c2c1=O` (stereo not drawn) [Compound 71, 3-acetyl-8-bromo-5-chloro-2-((4-(trifluoromethoxy)benzyl)sulfinyl)quinolin-4(1H)-one], the IC50 was above 2000 nM under setting [1]; above 2000 nM under setting [2]; above 10000 nM under setting [3]; above 2000 nM under setting [4]; above 10000 nM under setting [5]; above 2000 nM under setting [6]. Besides, the IC50 runs as follows: under setting [7], above 2000 nM; under setting [8], above 2000 nM; under setting [9], 1550 nM.
Take `CC(=O)c1c([S+]([O-])Cc2ccc(C(F)(F)F)o2)[nH]c2c(Br)ccc(Cl)c2c1=O` (stereo not drawn) [Compound 72, 3-acetyl-8-bromo-5-chloro-2-(((5-(trifluoromethyl)furan-2-yl)methyl)sulfinyl)quinolin-4(1H)-one]: the IC50 is, setting by setting: under setting [1], above 2000 nM; under setting [2], above 2000 nM; under setting [3], above 2000 nM; under setting [4], above 2000 nM; under setting [5], above 2000 nM; under setting [6], above 2000 nM. Moreover, the IC50 is 1380 nM under setting [7], above 2000 nM under setting [8] and 850 nM under setting [9].
For the compound `CC(=O)c1c([S+]([O-])Cc2ccc(C#N)cc2)[nH]c2c(Br)ccc(Cl)c2c1=O` (stereo not drawn) [Compound 73, 4-(((3-acetyl-8-bromo-5-chloro-4-oxo-1,4-dihydroquinolin-2-yl)sulfinyl)methyl)benzonitrile], the IC50 by setting is: under setting [1], above 2000 nM; under setting [2], above 2000 nM; under setting [3], above 10000 nM; under setting [4], above 2000 nM; under setting [5], above 10000 nM; under setting [6], above 2000 nM. Besides, the IC50 by setting is: under setting [7], above 2000 nM; under setting [8], above 2000 nM; under setting [9], 1200 nM.
